No end group written: not given here.
Key:
[1] = Circular dichroism secondary structure in 85% TFE, BeStSel analysis; type: physicochemical; settings: CD analyzed by BeStSel
Procedure: The present invention utilized a Circular Dichroism Spectrometer (AVIV Company) to observe the secondary structure of the antimicrobial peptides. Circular dichoism spectra of P-113 and its derivatives were recorded over the wavelength range of 195-260 nm with readings every 1 nm by using a quartz cuvette having 1 mm optical path length. Ellipticities were represented as mean residue molar ellipticity (MRE). P-113, P-113Du and P-113Tri were dissolved in 85% trifluoroethanol (TFE) solution.

och1Δ mutant strain = experiment: Susceptibility of och1Δ mutant, CFU; type: cell-based, Candida albicans; settings: och1Δ versus SN250, 1 h
Procedure: The SN250 and och1Δ mutant strains were grown overnight in YPD broth at 30° C. The overnight culture was then subcultured into fresh YPD medium and grown for 5 h. Cells were treated with different concentration of peptides for 1 h. After treatment, samples were serially diluted in PBS and 15 μl of each diluent was spotted onto YPD agar plates. Colony-forming units were counted after 24 h incubation at 30° C. The data were represented as the mean values±SD of three independent experiments.

[2] = system: SC5314 strain of Candida albicans; experiment: Intracellular ROS assay (DHE, MitoSOX Red, flow cytometry); type: cell-based; settings: 0.25 μM, 1 h, 37° C.
Procedure: The SC5314 strain of Candida albicans (wild type or WT) were grown overnight in YPD broth at 30° C. The overnight culture was then subcultured into fresh YPD medium and grown for 5 h. Cells were harvested by centrifugation, washed twice with 12.5 mM sodium acetate (NaOAc) and resuspended in 12.5 mM NaOAc to a concentration of 1*10^7 cells/ml. The cells were treated with various AMPs (0.25 μM) for 1 h at 37° C. After treatment, cells were washed twice with 12.5 mM NaOAc. Dihydroethidium (DHE) is a superoxide indicator, and MitoSOX Red (MitoSOX) was introduced for selective detection of superoxide in the mitochondria of live cells. The intracellular ROS was measured using DHE (20 μM) staining for 30 min and MitoSOX Red (5 μM) for 60 min in PBS. Fluorescent detection was performed by flow cytometry.

[3] = system: Wild type (WT) Candida albicans; experiment: Salt and pH tolerance of candidacidal activity; type: cell-based
Procedure: Wild type (WT) Candida albicans was cultivated in a YPD medium at 30° C. overnight and then transferred to 5 ml of fresh YPD culture broth, cultivated subsequently for another 5 hours. After the fungi were collected by centrifugation, washed with 12.5 mM sodium acetate twice, redissolved with 12.5 mM NaOAc to yield a fungal concentration of 1.5×10^6 cells/ml. Fifty microliters of liquid fungal suspension was taken out to mix with 50 μl of sequentially diluted antimicrobial peptides and placed in different wells of a 96-well plate allowing to react for 1 hour at 37° C. (as shown in FIG. 4(A). Then, 50 μl of liquid fungal mixture was taken out and 450 μl PBS was added to terminate the reaction. Finally, 25 μl was taken out and inoculated on a solid YPD medium.

[4] = system: SC5314 strain of Candida albicans; experiment: Effect of cell wall disrupting agents on peptide activity, CFU; type: cell-based; settings: Proteinase K 1 mg/ml, 30 min
Procedure: The SC5314 strain of Candida albicans (wild type or WT) were grown overnight in YPD broth at 30° C. The overnight culture was then subcultured into fresh YPD medium and grown for 5 h. Cells were treated with Proteinase K (1 mg/ml) for 30 min or Zymolyase (5 mg/ml) for 1 h at 30° C., followed by reacting with different concentrations of the peptides for 1 h, respectively. After that, samples were serially diluted in phosphate-buffered saline (PBS) and 15 μl of each diluent was spotted onto YPD agar plates. Colony-forming units were counted after incubation at 30° C. for 24 h. The data were represented as the mean values±SD of three independent experiments.

[5] = system: Candida albicans strain SC5314; experiment: Fungal suppression at various concentrations and reaction times, colony count; type: cell-based; settings: 37° C., 12.5 mM NaOAc
Procedure: To examine the activity of P-113 for killing fungus, fungal suppression assays were carried out at various concentrations or reaction times. Candida albicans strain SC5314 (wild type, WT) was cultivated in the Yeast extract Peptone Dextrose medium (YPD medium) at 30° C. overnight, transferred to 5 ml of fresh YPD culture broth, and then cultivated again for another 5 hours. After fungi were collected by centrifugation, the fungi were washed with 12.5 mM sodium acetate (NaOAc) twice, redissolved in each well of a 96-well plate with 12.5 mM NaOAc (1.5×10^6 cells in 0.1 ml of 12.5 mM NaOAc). Then, the fungi were treated with different concentrations of P-113 for different reaction times at 37° C. Around […] of Phosphate-buffered saline (PBS) was added into each well, took 25 μl of liquid fungi suspension out and inoculated on a solid YPD medium, after being cultivated at 30° C. for 24 hours, the number of colonies were counted.

[6] = system: Candida albicans strain SC5314 biofilms; experiment: Biofilm cell viability, XTT reduction assay; type: cell-based; settings: biofilm cells, 37° C., 1 hr
Procedure: Candida albicans strain SC5314 was cultivated in a YPD medium overnight and then transferred to a fresh YPD culture broth, diluted until the concentration was 3×10^5 cells/ml. 100 μl of liquid fungal suspension was placed in a 96-well plate for cultivation at 37° C. for 24 hours, formed biofilms were washed with sodium acetate (12.5 mM). Then, sequence-diluted antimicrobial peptides P-113, P-113Du and P-113Tri (0-200 μM) were added, reacted at 37° C. for 1 hour, washed with PBS twice. The cellular activity of the biofilms was determined by using XTT (2,3-bis(2-methoxy-4-nitro-5-sulfophenyl)-2H-tetrazolium-5-carboxanilide) reduction assays to analyze the cell survival rate. To perform this reaction, XTT (0.5 mg/ml) and Menadione (0.5 μM) were dissolved in PBS and then added into a 96-well plate formed by biofilms, reacted at 30° C. for 30 minutes, the optical density was measured at wavelength 490 nm (OD490). The cellular activity of the biofilms was represented as a percentage.

C. parapsilosis = type: cell-based
Procedure: (§1) The antimicrobial activities against clinical isolates and drug-resistant strains of P-113 and its derived peptides were examined. The present invention evaluated the effect of P-113 on 15 clinical isolates of fungi belonging to the genus Candida (see Table 1). Clinical isolates were cultivated overnight at 30° C. under shaking in a YPD cultural broth (1% yeast extract, 2% peptone and 2% glucose), cells were centrifuged and washed with YPD, then cultivated again in a YPD culture broth allowing to grow for 5 hours (initial optical density at 600 nm [OD600]˜0.5). Cells were washed with PBS and then collected by centrifugation, redissolved in a culture broth (modified RPMI 1640 medium, LYM), the cell concentration was adjusted to ˜0.1 [OD600]/ml and then treated with P-113. After the mixed solution was cultivated under shaking at 37° C. and 5% CO2 for 24 hours, absorbance measurement (OD value) was performed to determine the minimum inhibitory concentration (MIC).

C. dubliniensis = type: cell-based
Procedure: as §1

AKRHHGYKRKFH-NH2 [P-113, AKRHHGYKRKFH-NH2]
content of the α-helical secondary structure [1]: 2.9% | susceptibility of och1Δ mutant to peptide (och1Δ mutant strain): resistant | intracellular ROS formation [2]: induced intracellular ROS formation | candidacidal activity ([3]; 12.5 mM sodium acetate, 37° C., 1 hour): exhibited candidacidal activity | candidacidal activity ([3]; 62.25 and 93.75 mM salt): reduced activity | candidacidal activity ([3]; pH 4.5): activity was lost | candidacidal activity ([3]; pH 6 and 8): exhibited candidacidal activity | candidacidal activity after proteinase K treatment of cells [4]: failed to kill C. albicans | anti-Candida activity, dependence on concentration and time [5]: time-dependent and dose-dependent | concentration causing 50% reduction in the metabolic activity (50% RMA) [6]: > 300 µg/mL | Minimum Inhibitory Concentration (C. parapsilosis): 0.78 µg/mL | Minimum Inhibitory Concentration (C. dubliniensis): 6.25 µg/mL

Source: patent US10183059B2, “Method for treating microbial infection” (GENERAL BIOLOGICALS CORPORATION, priority 2015, dated 2019)
